Source: US20260092085A1, “SYNTHETIC TRIPLEX PEPTIDE NUCLEIC ACID-BASED INHIBITORS FOR CANCER THERAPY” (University of Connecticut, priority 2022, published 2026)
{RR} = two arginine residues at the PNA terminus

Assays:
miR-155 = miR-155 gene expression in U2932 tumor samples after in vivo treatment; design: species or system NSG mice; settings: U2932 xenograft, intra-tumoral
Description: FIGS. 22A-D show in vivo gene expression and protein level analysis. (22A) miR-155 gene expression levels in U2932 tumor samples after in vivo treatment with indicated PNAs. Data was normalized with average control U6 (n=4, data represented as mean±standard error mean). ***p<0.001 (22B) Gene expression level of downstream target genes of miR-155: MCL1 in U2932 tumor samples after treatment with total 3 mg kg-1 dose of Scr-γtcPNA-155, PNA-155, γPNA-155 and γtcPNA-155 and normalized with average control GAPDH (n=3, data represented as mean±SEM), unpaired two-tailed t-test was performed for analysis). *p<0.05, **p<0.01 (22C) Representative western blot of Mcl-1 protein and its quantification (n=3 technical replicate) in U2932 tumor samples treated with total 3 mg kg-1 dose of Scr-γtcPNA-155, PNA-155 and γtcPNA-155. Data is represented as mean±SEM and unpaired two-tailed t-test was performed for analysis. *p<0.05. The relative protein levels were determined from the band intensity using ImageJ software and normalized relative to loading control and treatment control. (22D) Gene expression level of tumor suppressor proteins (FOXO3A, CUX1, SOCS1, CSF1R, JARID2, SHIP1, PICALM, PDCD4, BACH1, CASP3) in U2932 tumor samples after treatment with total 3 mg kg-1 dose of Scr-γtcPNA-155, PNA-155, γPNA-155 and γtcPNA-155 and normalized with average control GAPDH (n=3, data represented as mean±SEM, unpaired two-tailed t-test was performed for statistical analysis). *p<0.05, **p<0.01.
RNA and Protein extraction from tumor samples: The mice were injected intra-tumorally with 1 mg kg-1 dose of PNA-155, γtcPNA-155, γPNA-155, Scr-γtcPNA-155 or were untreated. The injections were repeated two additional times after 1 week each. The length, breadth, and depth of the tumors were measured daily using a vernier caliper. The mice were euthanized when the tumor volumes reached 2000 mm^3. The resected tumor sections were finely minced using a sterile blade and suspended in dissociation media (4 ml) comprising of RPMI-1640, 1.2 mg/ml dispase, and 0.5 mg/ml collagenase for 90 mins at 500 rpm at 37° C. The dissociated tumors were washed with buffer saline at 2500 rpm (4 mins) at 4° C. and then suspended in 0.25% trypsin for 4 mins at room temperature. RPMI 1640 media was added to the trypsinized tumor mass, and the cells were passed through a 70 um filter. The cells were centrifuged at 2500 rpm for 4 mins at 4° C. The cell pellet was then suspended in 1×RBC lysis buffer (Sigma) and incubated on ice for 10 mins. PBS was added to the cells and the cells were passed through a 40 um filter. The cells were centrifuged at 2500 rpm for 4 mins at 4° C. The cell pellet was resuspended in 0.5% BSA in PBS. […]

[1] = tested on: U2932 subcutaneous tumors; experiment: Tumor growth in U2932 derived xenograft model; format: in vivo, NSG mice; settings: intra-tumoral injections days 0, 7, 14
Description: Mouse tumor xenograft: Female NSG mice (NOD.Cg-Prkdcscid Il2rgtm1Wjl/SzJ, strain 005557) weighing 20-23 g were procured from Jackson laboratories. 1×10^7 U2932 cells suspended in RPMI-1640 medium were injected subcutaneously in the right and left flank of 6-week-old NSG mice. The mice developed a small bump in 2 weeks. When the tumor volume reached 100-200 mm^3, the mice were randomly assigned to the treatment group (n=6 per group).
RNA and Protein extraction from tumor samples: The mice were injected intra-tumorally with 1 mg kg-1 dose of PNA-155, γtcPNA-155, γPNA-155, Scr-γtcPNA-155 or were untreated. The injections were repeated two additional times after 1 week each. The length, breadth, and depth of the tumors were measured daily using a vernier caliper. The mice were euthanized when the tumor volumes reached 2000 mm^3. The resected tumor sections were finely minced using a sterile blade and suspended in dissociation media (4 ml) comprising of RPMI-1640, 1.2 mg/ml dispase, and 0.5 mg/ml collagenase for 90 mins at 500 rpm at 37° C. The dissociated tumors were washed with buffer saline at 2500 rpm (4 mins) at 4° C. and then suspended in 0.25% trypsin for 4 mins at room temperature. RPMI 1640 media was added to the trypsinized tumor mass, and the cells were passed through a 70 um filter. The cells were centrifuged at 2500 rpm for 4 mins at 4° C. The cell pellet was then suspended in 1×RBC lysis buffer (Sigma) and incubated on ice for 10 mins. PBS was added to the cells and the cells were passed through a 40 um filter. The cells were centrifuged at 2500 rpm for 4 mins at 4° C. The cell pellet was resuspended in 0.5% BSA in PBS. The mouse cells were removed from the tumor cells using a mouse cell depletion kit (Miltenyi Biotec) according to the manufacturer's protocol. The enriched tumor cells from each tumor sample were divided into two fractions. RNA for gene expression analysis was extracted from one tumor fraction by the same procedure as mentioned earlier. The protein for western blot analysis was extracted from the second fraction using the method described above.
For the efficacy study, each mouse received three intra-tumoral injections of either γtcPNA-155, γPNA-155 or PNA-155 on days 0, 7, 14. We noticed that the control and scrambled treated tumors reached 2000 mm^3 much faster during our study, so we could not inject a third time in these mice. […] In contrast, as stated earlier, there was no effect on the control and scrambled PNA control on the tumor volume.

| Substance | decrease in miR-155 gene expression in tumors (miR-155) | tumor growth / tumor volume [1] |
| --- | --- | --- |
| γtcPNA-155: serine gamma tail-clamp anti-miR-155 PNA, RR-TJJJJ-OOO-ACCCCTATCACGATTAGCATTAA-RR, SEQ ID NO: 3 (all peptide nucleic acid (PNA); serine gamma PNA, tail-clamp TJJJJ via linkers, Arg-Arg at both ends) | 90% | reduced the tumor growth |
| PNA-155: conventional full-length regular PNA (23mer), RR-ACCCCTATCACGATTAGCATTAA-RR, SEQ ID NO: 1 (all peptide nucleic acid (PNA), 5' {RR}, 3' {RR}) [reference compound] | 75% | reduced the tumor growth |
